In ChEMBL document CHEMBL5247653, “Discovery of Clinical Candidate ACT-777991, a Potent CXCR3 Antagonist for Antigen-Driven and Inflammatory Pathologies” (J Med Chem, 2023):
Converted amounts (≈) assume the structure as drawn.

How the values were obtained:
[1] = Metabolic stability in rat hepatocyte assessed as M4 metabolite formation at 1 uM and measured upto 15 mins in presence of NADPH regenerating system by LC-MS/MS analysis; type: ADME, cell-based; details: hepatocytes, 0.25 h
[2] = Metabolic stability in human liver microsomes assessed as intrinsic clearance at 1 uM and measured upto 15 mins in presence of NADPH regenerating system by LC-MS/MS analysis; type: ADME, Microsome; details: read-out: CLH
[3] = Half life in Beagle dog at 2.5 mg/kg,iv or 2.5 mg/kg, po; type: ADME, organism-based, Canis lupus familiaris; details: in vivo
[4] = Protein binding in mouse plasma assessed as fraction unbound at 20 ug/ml using 14C-labeled ligand by rapid equilibrium dialysis; type: ADME, cell-free; details: at 20 µg/mL
[5] = AUC (0 to last) in Beagle dog at 2.5 mg/kg,iv or 2.5 mg/kg, po; type: ADME, organism-based, Canis lupus familiaris; design: dose 2.5 mg/kg, route iv; details: in vivo
[6] = Solubility of compound in FaSSIF at 37 degreeC; type: ADME
[7] = AUC (0 to last) in Wistar rat at 3 mg/kg,iv or 3 mg/kg, po; type: ADME, organism-based; design: dose 3 mg/kg, route iv; details: in vivo
[8] = Tmax in Cynomolgus monkey at 1.0 mg/kg,iv or 1.25 mg/kg, po; type: ADME, organism-based, Macaca fascicularis; details: in vivo
[9] = Cmax in LPS-induced DBA/1 mouse plasma at 0.02 microg/g, po bid preincubated for 3 days followed by LPS stimulation for 30 mins and measured after 72 hrs by flow cytometry; type: ADME, organism-based; design: time 6 day, dose 0.02 µg/g, route po; details: 0.02 µg/g
[10] = biological target: T1, C-X-C chemokine receptor type 3 (Mus musculus) (UniProt O88410); assay: In vivo antagonist activity at CXCR3 in LPS-induced DBA/1 mouse model assessed as reduction in mouse CXCL10-mediated chemotaxis in CD8+ T cells at 0.06 microg/g, po bid preincubated for 3 days followed by LPS stimulation for 30 mins and measured after 3 days by flow cytometry; type: functional, organism-based; design: scale not given: the % may be the effect or the level left; details: T-cell, dose 0.06 µg/g, time 6.0 day
T1 sequence (whole entry): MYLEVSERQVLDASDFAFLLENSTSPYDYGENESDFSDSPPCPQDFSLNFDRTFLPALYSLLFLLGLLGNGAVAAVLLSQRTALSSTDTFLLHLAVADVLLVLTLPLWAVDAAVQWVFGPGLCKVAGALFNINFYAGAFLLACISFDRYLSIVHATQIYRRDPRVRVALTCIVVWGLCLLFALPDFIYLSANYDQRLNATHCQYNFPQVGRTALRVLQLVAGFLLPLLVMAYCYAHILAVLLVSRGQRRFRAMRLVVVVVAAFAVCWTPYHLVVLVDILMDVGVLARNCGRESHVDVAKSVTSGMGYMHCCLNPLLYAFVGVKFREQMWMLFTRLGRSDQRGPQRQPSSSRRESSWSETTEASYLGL

[11] = Clearance in Beagle dog at 2.5 mg/kg,iv or 2.5 mg/kg, po; type: ADME, organism-based, Canis lupus familiaris; details: in vivo
[12] = Tmax in Wistar rat at 3 mg/kg,iv or 3 mg/kg, po; type: ADME, organism-based; details: in vivo
CYP3A4 = CYP3A4 (Homo sapiens, UniProt P08684); assay: […] recombinant human CYP3A4 mediated drug metabolism in human liver microsomes assessed as intrinsic clearance at 1 uM incubated for 45 mins in presence of NADPH regenerating system by LC-MS/MS analysis; type: ADME, Microsome; details: read-out: CLH
Chain of CYP3A4 (P08684 whole entry): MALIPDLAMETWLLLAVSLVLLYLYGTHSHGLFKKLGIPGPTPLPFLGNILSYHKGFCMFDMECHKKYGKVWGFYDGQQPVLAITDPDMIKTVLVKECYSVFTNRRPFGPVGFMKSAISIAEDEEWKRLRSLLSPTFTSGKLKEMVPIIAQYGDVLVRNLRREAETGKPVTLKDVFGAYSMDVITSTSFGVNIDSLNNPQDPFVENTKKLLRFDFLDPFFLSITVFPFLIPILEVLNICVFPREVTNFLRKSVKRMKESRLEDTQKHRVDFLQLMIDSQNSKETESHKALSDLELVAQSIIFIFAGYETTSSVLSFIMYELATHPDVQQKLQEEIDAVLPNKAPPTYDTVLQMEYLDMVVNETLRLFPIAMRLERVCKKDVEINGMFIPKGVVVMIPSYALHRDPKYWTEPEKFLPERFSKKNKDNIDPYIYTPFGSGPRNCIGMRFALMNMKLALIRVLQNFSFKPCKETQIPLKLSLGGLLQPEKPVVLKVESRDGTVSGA

[13] = biological target: C-X-C chemokine receptor type 3 (Rattus norvegicus, UniProt Q9JII9); assay: Antagonist activity at rat CXCR3 expressed in CHO-K1 cells assessed as reduction in CXCL10 induced calcium flux by FLIPR method; type: cell-based
Chain of C-X-C chemokine receptor type 3 (Rattus norvegicus, UniProt Q9JII9) (Q9JII9 whole entry): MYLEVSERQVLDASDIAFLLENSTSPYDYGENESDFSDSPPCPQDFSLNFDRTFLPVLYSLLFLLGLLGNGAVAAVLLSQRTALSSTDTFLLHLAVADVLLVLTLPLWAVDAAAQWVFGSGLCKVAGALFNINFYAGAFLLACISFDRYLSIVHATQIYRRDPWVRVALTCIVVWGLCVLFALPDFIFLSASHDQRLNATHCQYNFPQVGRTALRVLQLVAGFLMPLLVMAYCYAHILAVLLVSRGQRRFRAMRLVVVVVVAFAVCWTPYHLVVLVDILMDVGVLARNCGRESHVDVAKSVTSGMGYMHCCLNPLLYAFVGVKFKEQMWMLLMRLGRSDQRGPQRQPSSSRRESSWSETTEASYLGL

[14] = Metabolic stability in dog hepatocyte assessed as M2 metabolite formation at 1 uM and measured upto 15 mins in presence of NADPH regenerating system by LC-MS/MS analysis; type: ADME, cell-based, Canis lupus familiaris; details: hepatocytes, 0.25 h
[15] = Total clearance in Beagle dog plasma at 1 mg/kg, iv; type: ADME, organism-based, Canis lupus familiaris
[16] = biological target: Voltage-gated inwardly rectifying potassium channel KCNH2 (Homo sapiens, UniProt Q12809); assay: Inhibition of human ERG stably expressed in CHO cells at -80 mV holding voltage by automated QPatch electrophysiological assay; type: toxicity, cell-based
Chain of Voltage-gated inwardly rectifying potassium channel KCNH2 (Q12809 whole entry): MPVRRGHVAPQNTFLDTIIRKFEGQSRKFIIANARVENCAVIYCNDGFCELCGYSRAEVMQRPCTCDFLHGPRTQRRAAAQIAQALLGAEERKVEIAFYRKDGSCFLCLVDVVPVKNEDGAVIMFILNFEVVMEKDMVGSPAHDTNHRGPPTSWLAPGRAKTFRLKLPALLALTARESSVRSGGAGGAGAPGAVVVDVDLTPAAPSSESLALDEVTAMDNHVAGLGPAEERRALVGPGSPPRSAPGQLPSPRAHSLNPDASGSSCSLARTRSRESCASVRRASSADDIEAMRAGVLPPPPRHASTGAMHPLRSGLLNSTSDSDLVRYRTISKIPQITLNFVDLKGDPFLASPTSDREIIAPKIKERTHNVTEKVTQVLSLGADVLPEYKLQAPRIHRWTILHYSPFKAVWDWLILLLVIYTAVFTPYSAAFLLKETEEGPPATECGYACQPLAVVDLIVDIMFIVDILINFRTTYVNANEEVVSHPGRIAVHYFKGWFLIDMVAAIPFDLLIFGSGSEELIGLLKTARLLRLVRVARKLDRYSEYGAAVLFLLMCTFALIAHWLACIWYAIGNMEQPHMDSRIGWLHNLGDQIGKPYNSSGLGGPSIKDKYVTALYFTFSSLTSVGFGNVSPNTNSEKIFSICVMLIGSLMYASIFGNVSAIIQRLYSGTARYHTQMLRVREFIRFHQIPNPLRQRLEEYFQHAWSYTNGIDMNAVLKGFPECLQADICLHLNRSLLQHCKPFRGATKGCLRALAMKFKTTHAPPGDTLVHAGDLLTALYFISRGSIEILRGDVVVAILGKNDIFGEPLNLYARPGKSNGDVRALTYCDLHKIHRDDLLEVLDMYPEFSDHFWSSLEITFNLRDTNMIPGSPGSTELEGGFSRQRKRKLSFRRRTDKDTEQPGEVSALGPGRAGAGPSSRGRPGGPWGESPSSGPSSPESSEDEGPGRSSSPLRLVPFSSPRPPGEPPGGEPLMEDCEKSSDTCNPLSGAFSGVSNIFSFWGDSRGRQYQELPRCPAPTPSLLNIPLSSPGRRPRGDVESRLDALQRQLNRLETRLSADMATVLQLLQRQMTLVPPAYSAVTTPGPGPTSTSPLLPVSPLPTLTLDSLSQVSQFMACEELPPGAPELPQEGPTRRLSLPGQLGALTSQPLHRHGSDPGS

[17] = biological target: T2, C-X-C chemokine receptor type 3 (Homo sapiens) (UniProt P49682); assay: Binding affinity to human CXCR3 expressed in CHO-K1 cell membrane assessed as […] (Kon) using tritium-labeled ligand by […] assay; type: cell membranes; details: filed as antagonist
T2 sequence (whole entry): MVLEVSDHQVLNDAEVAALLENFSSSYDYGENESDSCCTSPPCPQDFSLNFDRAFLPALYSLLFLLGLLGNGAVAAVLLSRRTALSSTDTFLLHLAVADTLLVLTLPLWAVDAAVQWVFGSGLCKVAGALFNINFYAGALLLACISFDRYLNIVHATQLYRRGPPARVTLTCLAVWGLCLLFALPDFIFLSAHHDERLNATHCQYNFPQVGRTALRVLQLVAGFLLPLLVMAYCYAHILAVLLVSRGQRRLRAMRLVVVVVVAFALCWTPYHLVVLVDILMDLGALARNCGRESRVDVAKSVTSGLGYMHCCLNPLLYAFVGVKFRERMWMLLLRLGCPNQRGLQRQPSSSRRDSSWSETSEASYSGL

[18] = Cmax in Beagle dog at 2.5 mg/kg,iv or 2.5 mg/kg, po; type: ADME, organism-based, Canis lupus familiaris; design: dose 2.5 mg/kg, route iv; details: in vivo
[19] = Metabolic stability in human hepatocyte assessed as M1 metabolite formation at 1 uM and measured upto 15 mins in presence of NADPH regenerating system by LC-MS/MS analysis; type: ADME, cell-based; details: hepatocytes, 0.25 h
[20] = biological target: T3, C-X-C chemokine receptor type 3 (Mus musculus, UniProt O88410); assay: Antagonist activity at CXCR3 in DBA/1 mouse whole blood assessed as receptor internalization incubated for 30 mins in presence of CXCL10 by flow cytometric analysis; type: tissue-based
T3 sequence (O88410 whole entry): T1 sequence (whole entry)

[21] = Protein binding in rat plasma assessed as fraction unbound at 1 uM incubated for 6 hrs by rapid equilibrium dialysis based LC-MS/MS analysis; type: ADME, cell-free
[22] = Oral bioavailability in Cynomolgus monkey at 1.25 mg/kg; type: ADME, organism-based, Macaca fascicularis; details: in vivo
[23] = In vivo inhibition of hERG in iv dosed dog assessed as increase in QTc interval; type: toxicity, organism-based, Canis lupus familiaris
[24] = Metabolic stability in rat hepatocyte assessed as M1 metabolite formation at 1 uM and measured upto 15 mins in presence of NADPH regenerating system by LC-MS/MS analysis; type: ADME, cell-based; details: hepatocytes, 0.25 h
[25] = In vivo inhibition of hERG in guinea pig assessed as increase in QTc interval at 27 ug/ml, iv; type: toxicity, organism-based, Cavia porcellus; details: at 27 µg/mL
[26] = Metabolic stability in human hepatocyte assessed as M4 metabolite formation at 1 uM and measured upto 15 mins in presence of NADPH regenerating system by LC-MS/MS analysis; type: ADME, cell-based; details: hepatocytes, 0.25 h
Cytochrome P450 3A4 = Cytochrome P450 3A4 (Homo sapiens, UniProt P08684); assay: Time dependent inhibition of CYP3A4 (unknown origin); type: ADME
Chain of Cytochrome P450 3A4 (P08684 whole entry): as the sequence (P08684 whole entry) above

[27] = Unbound clearance in Wistar rat plasma at 0.5 mg/kg, iv; type: ADME, organism-based; details: in vivo

For `Cc1ncn(CC(=O)N2CCN(c3sc(C(F)(F)F)nc3-c3cnc(C(F)(F)F)nc3)C[C@H]2CCO)n1`, the Stability [1] was “Unstable”, the microsomal CLint at 1 µM [2] was < 10 µL/min/mg and the half-life [3] was 5.3 h. For the same compound, the fraction unbound at 20 ug/ml [4] was 0.1, the AUC(0-t) [5] was 3910 ng·h/mL and the solubility [6] was 718 µg/mL (≈ 1300 µM). The AUC(0-t) [7] was 4210 ng·h/mL, the Tmax [8] was 1.5 h and the Cmax [9] was 173 ng/mL. For the same compound, the Activity [10] was 55%, the clearance [11] was 9.5 mL/min/kg and the Tmax [12] was 0.5 h. The microsomal CLint at 1 µM (CYP3A4) was < 0.04 µL/min/mg, the IC50 [13] was 2.2 nM and the Stability [14] was “Unstable”. The clearance [15] was 5 mL/min/kg, the IC50 [16] was 26000 nM and the ka [17] was 6.6 10^6/M/s. The Cmax [18] was 910 ng/mL, the Stability [19] was “Unstable” and the IC50 [20] was 161 nM. The fraction unbound at 6 h, 1 µM [21] was 0.09, the bioavailability [22] was 92% and the “inhibition (INH)” value [23] was “Toxic”. For the same compound, the Stability [24] was “Unstable”, the “inhibition (INH)” value [25] was “Toxic” and the Stability [26] was “Unstable”. The IC50 (Cytochrome P450 3A4) was > 50000 nM and the CL free [27] was 156 mL/min/kg.
